Results reported in US11090293B2 (Ovid Therapeutics Inc., priority 2018, dated 2021).
Where two headings read alike, the source gives them in different places.

Key:
[1] = human, in vivo, po
[2] = human, in vivo

CCN(CC)CCN1C(=O)CN=C(c2ccccc2F)c2cc(Cl)ccc21 [Flurazepam]
residual effect on Choice Reaction Time and Critical Flicker Fusion [1]: showed significant effect

Oc1noc2c1CCNC2 [gaboxadol, 4,5,6,7-tetrahydroisoxazolo [5,4-c]pyridine-3-ol]
CLR ([2]; both, iv, 10 mg): 208 mL/min
half-life (t½) ([2]; both, po): 1.5 h
CLR ([2]; both, po, 2.5 mg): 196 mL/min
AUC0-∞ ([2]; both, po, 5 mg): 171 ng·h/mL
CLR ([2]; both, po, 5 mg): 222 mL/min
AUC0-∞ ([2]; both, po, 10 mg): 346 ng·h/mL
AUC0-∞ ([2]; both, po, 15 mg): 539 ng·h/mL
CLR ([2]; both, po, 15 mg): 234 mL/min
AUC0-∞ ([2]; both, po, 20 mg): 669 ng·h/mL
CLR ([2]; both, po, 20 mg): 265 mL/min
CL/F (CL for 10 mg IV) ([2]; iv, 10 mg): 438 mL/min
Slope (90% CI) of AUC0-∞, dose proportionality assessment ([2]; po): 0.98 (0.95, 1.01)
residual effect on Choice Reaction Time and Critical Flicker Fusion [1]: did not show residual effect
